Reference: ChEMBL document CHEMBL1201862, “PubChem BioAssay data set” (2004)
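Five compound concentrations were applied to cells in 96-well plates for 48 hours; endpoints were derived by simple linear interpolation of the resulting dose-response curve. Abbreviation: GI50, concentration required for 50% inhibition of growth.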 Calls of active or inactive are those of the source. No stated cut-off is given here; in the data, active = GI50 up to about 1.1 µM and inactive = higher.

Assays:
Assay in all cases: growth of human tumour cells (NCI), 48 h
[1] = test system: RPMI-8226
[2] = test system: CCRF-CEM
[3] = test system: HT-29
[4] = test system: RXF 393
[5] = test system: OVCAR-5
[6] = test system: SF-539
[7] = test system: LXFL 529
[8] = test system: NCI-H460
[9] = test system: A549
[10] = test system: M19-MEL
[11] = test system: Malme-3M
[12] = test system: HL-60
[13] = test system: A498
[14] = test system: NCI-H522
[15] = test system: SK-OV-3
[16] = test system: SK-MEL-5
[17] = test system: OVCAR-4
[18] = test system: UACC-62
[19] = test system: SR

Measured: GI50

COc1cccc2c1OC1Sc3ccccc3-c3nn(-c4ccccc4)c-2c31 (stereo unspecified)
inactive: [1] > 100 µM | [2] > 100 µM | [3] > 100 µM | [4] > 100 µM | [5] > 100 µM | [6] > 100 µM | [7] > 100 µM | [8] > 100 µM | [9] > 100 µM | [10] > 100 µM | [11] > 100 µM | [12] > 100 µM | [13] > 100 µM | [14] 26.7 µM | [15] > 100 µM

O=C(CSc1nnc(Cc2ccccc2)o1)Nc1cccc(Cl)c1
inactive: [1] 72.4 µM | [2] 71 µM | [3] 66.2 µM | [4] > 100 µM | [5] > 100 µM | [6] > 100 µM | [7] 44.1 µM | [8] > 100 µM | [9] > 100 µM | [16] 76.7 µM | [10] > 100 µM | [11] 63.7 µM | [12] > 100 µM | [17] 51.2 µM | [13] > 100 µM | [14] 40.9 µM | [15] > 100 µM

CC1C[C@@H]2C(=O)NC(=O)[C@@H]2c2c1c1ccccc1n2C (stereo partly specified)
inactive: [1] > 100 µM | [2] 97.9 µM | [3] > 100 µM | [4] > 100 µM | [6] > 100 µM | [18] > 100 µM | [7] > 100 µM | [8] > 100 µM | [9] > 100 µM | [16] > 100 µM | [10] > 100 µM | [11] > 100 µM | [12] > 100 µM | [13] > 100 µM | [14] > 100 µM | [15] > 100 µM

CC1(c2ccccc2)CC(c2ccccc2)=NO1 (stereo unspecified)
inactive: [1] > 100 µM | [2] > 100 µM | [3] > 100 µM | [5] > 100 µM | [6] > 100 µM | [18] > 100 µM | [7] > 100 µM | [8] > 100 µM | [9] > 100 µM | [16] > 100 µM | [10] > 100 µM | [11] > 100 µM | [12] > 100 µM | [17] > 100 µM | [13] > 100 µM | [14] > 100 µM | [15] > 100 µM | [19] > 100 µM

C/C(=N\NC(=O)c1ccccc1O)c1c(O)cc(C)oc1=O
inactive: [1] 50.4 µM | [2] > 10 µM | [3] > 100 µM | [4] 40.6 µM | [5] 73.3 µM | [6] 62.8 µM | [18] 25.6 µM | [7] 85.5 µM | [8] 43.6 µM | [9] 33 µM | [16] 43.8 µM | [10] 83.4 µM | [11] 99.5 µM | [12] 63.2 µM | [17] 71 µM | [13] > 100 µM | [14] 32.7 µM | [15] 17.4 µM

COC(=O)C1=CC2C(=O)OC1C1C(=O)NC(=O)C21 (stereo unspecified)
inactive: [1] > 100 µM | [2] > 100 µM | [3] > 100 µM | [6] > 100 µM | [18] > 100 µM | [7] > 100 µM | [8] > 100 µM | [9] > 100 µM | [16] > 100 µM | [10] > 100 µM | [11] > 100 µM | [12] > 100 µM | [17] 60.4 µM | [13] > 100 µM | [14] > 100 µM | [15] > 100 µM | [19] > 100 µM
